Measured values reported in the NIST ThermoML archive (doi:10.1016/j.jct.2012.03.005).
Numbers after ± are expanded uncertainties.

How the values were obtained:
[1] = 101.33 kPa, Liquid, Vibrating tube method
[2] = activity coefficient (dimensionless); of the first substance listed, at infinite dilution; xn = mol fraction of the nth substance listed; conditions: 101 kPa, Liquid, Chromatography, x1 = 0

Row | SMILES | mass density ([1]; 298.15 K) [kg/m3] | mass density ([1]; 308.15 K) [kg/m3] | mass density ([1]; 318.15 K) [kg/m3] | mass density ([1]; 328.15 K) [kg/m3] | mass density ([1]; 338.15 K) [kg/m3] | mass density ([1]; 348.15 K) [kg/m3] | mass density ([1]; 358.15 K) [kg/m3] | activity coefficient ([2]; 308.15 K) | activity coefficient ([2]; 318.15 K) | activity coefficient ([2]; 328.15 K) | activity coefficient ([2]; 338.15 K) | activity coefficient ([2]; 348.15 K) | activity coefficient ([2]; 358.15 K)
1 | C1CCOC1 [tetrahydrofuran] + CCn1cc[n+](C)c1.CS(=O)(=O)[O-] |  |  |  |  |  |  |  | 5.42 ± 0.37 | 5.3 ± 0.36 | 5.2 ± 0.4 | 5.1 ± 0.35 | 5 ± 0.34 | 4.91 ± 0.33
2 | C1CCCCC1 [cyclohexane] + CCn1cc[n+](C)c1.CS(=O)(=O)[O-] |  |  |  |  |  |  |  | 83.6 ± 5.7 | 73.9 ± 5.1 | 67.6 ± 4.6 | 59.6 ± 4.1 | 53.7 ± 3.7 | 

The remaining lines, values ahead:

Row | mass density ([1]; 298.15 K) [kg/m3] | mass density ([1]; 308.15 K) [kg/m3] | mass density ([1]; 318.15 K) [kg/m3] | mass density ([1]; 328.15 K) [kg/m3] | mass density ([1]; 338.15 K) [kg/m3] | mass density ([1]; 348.15 K) [kg/m3] | mass density ([1]; 358.15 K) [kg/m3] | activity coefficient ([2]; 308.15 K) | activity coefficient ([2]; 318.15 K) | activity coefficient ([2]; 328.15 K) | activity coefficient ([2]; 338.15 K) | activity coefficient ([2]; 348.15 K) | activity coefficient ([2]; 358.15 K) | SMILES
3 | 1239.96 ± 0.43 | 1233.22 ± 0.42 | 1226.51 ± 0.42 | 1219.84 ± 0.41 | 1213.2 ± 0.41 | 1206.63 ± 0.4 | 1200.08 ± 0.4 |  |  |  |  |  |  | CCn1cc[n+](C)c1.CS(=O)(=O)[O-] [1-ethyl-3-methylimidazolium methanesulfonate]
4 |  |  |  |  |  |  |  | 1320 ± 91 | 1180 ± 82 | 1040 ± 72 | 925 ± 64 | 835 ± 58 | 762 ± 53 | CCCCCCCCCC [decane] + CCn1cc[n+](C)c1.CS(=O)(=O)[O-]
5 |  |  |  |  |  |  |  |  | 0.071 ± 0.03 | 0.075 ± 0.03 | 0.079 ± 0.03 | 0.083 ± 0.03 | 0.088 ± 0.03 | O [water] + CCn1cc[n+](C)c1.CS(=O)(=O)[O-]
